The numbers were not newly measured in patent publication US8551986B2, “Treatment of sequelae of psychiatric disorders” (The McLean Hospital Corporation, priority 2005, dated 2013), which cites them from elsewhere.

Structures are written as SMILES.

For the data set the following is noted: human studies, all but one study; cited from earlier work.

Consider `C=C1CC[C@@]2(O)[C@H]3Cc4ccc(O)c5c4[C@@]2(CCN3CC2CC2)[C@H]1O5` [nalmefene], for which the caloric intake entry is reported as “significant decreases”.

Take `O=C1CC[C@@]2(O)[C@H]3Cc4ccc(O)c5c4[C@@]2(CCN3CC2CC2)[C@H]1O5` [naltrexone]: the caloric intake entry is listed as “significant decreases”.
